Data from patent US9204653B2, “5-fluoro pyrimidine derivatives” (DOW AGROSCIENCES LLC, priority 2008, dated 2015).
Like-named read-outs stand apart in the source and are kept apart here.

Test system: Mycosphaerella graminicola; Anamorph: Septoria tritici; Bayer Code SEPTTR
Experiment: Leaf blotch of wheat, foliar fungicide treatment, one day protectant (1DP) or three day curative (3DC)
Format: in vivo, Septoria tritici on wheat plants (variety Yuma)
Conditions: Zymoseptoria tritici; for pest or weed control at 25 ppm / pest or weed control at 100 ppm: rating of percent disease control; for pest or weed control at 50 ppm / pest or weed control at 200 ppm: % disease control rating, one day protectant
[1] = 24 h, one day protectant (1DP), read-out: SETTTR 1DP 25 ppm
[2] = 24 h, one day protectant (1DP), read-out: SEPTTR 1DP 100 ppm
[3] = 72 h, three day curative (3DC), read-out: SEPTTR 3DC 25 ppm
[4] = 72 h, three day curative (3DC), read-out: SEPTTR 3DC 100 ppm

| SMILES | pest or weed control at 25 ppm [1] [%] | pest or weed control at 100 ppm [2] [%] | pest or weed control at 25 ppm [3] [%] | pest or weed control at 100 ppm [4] [%] | pest or weed control at 50 ppm (24 h) [%] | pest or weed control at 200 ppm (24 h) [%] |
| --- | --- | --- | --- | --- | --- | --- |
| Cc1ccc(COc2ncc(F)c(NC(=S)Nc3ccccc3F)n2)cc1 [Compound 778] | 76 to 100 | 76 to 100 | 76 to 100 | 76 to 100 |  |  |
| OCNc1nc(OCc2cccc(F)c2)ncc1F [Compound 780] | 76 to 100 | 76 to 100 | 76 to 100 | 76 to 100 |  |  |
| N#Cc1cccc(COc2ncc(F)c(NC(=S)Nc3ccccc3F)n2)c1 [Compound 781] | 0 to 25 | 51 to 75 | 0 to 25 | 26 to 50 |  |  |
| CCOC(=O)COC(=O)Nc1nc(OCc2cccc(C#N)c2)ncc1F [Compound 782] | 0 to 25 | 26 to 50 | 26 to 50 | 76 to 100 |  |  |
| CC(C)Oc1ccc(COc2ncc(F)c(N)n2)cc1 [Compound 783] | 76 to 100 | 76 to 100 | 76 to 100 | 76 to 100 |  |  |
| CNc1nc(OCc2ccc(F)cc2)ncc1F [Compound 784] | 0 to 25 | 0 to 25 | 0 to 25 | 0 to 25 |  |  |
| COc1cc(F)cc(F)c1COc1ncc(F)c(N)n1 [Compound 787] | 76 to 100 | 76 to 100 | 76 to 100 | 76 to 100 |  |  |
| CC(C)COC(=O)Oc1ncc(F)c(/N=C/N(C)C)n1 [Compound 788] | 76 to 100 | 76 to 100 | 76 to 100 | 76 to 100 |  |  |
| CN(C)/C=N/c1nc(OC(=O)OCc2ccccc2Cl)ncc1F [Compound 789] | 76 to 100 | 76 to 100 | 76 to 100 | 76 to 100 |  |  |
| CCCCOc1cccc(C(C)Oc2ncc(F)c(N)n2)c1 (stereo not shown) [Compound 790] | 76 to 100 | 76 to 100 | 76 to 100 | 76 to 100 |  |  |
| O=C(Cc1ccccc1)Nc1nc(OCc2ccccc2)ncc1F [Compound 792] | 76 to 100 | 76 to 100 | 26 to 50 | 51 to 75 |  |  |
| CC(C)C(=O)NNc1nc(OCc2ccc(F)cc2)ncc1F [Compound 793] | 0 to 25 | 0 to 25 | 0 to 25 | 0 to 25 |  |  |
| COc1cccc(COc2ncc(F)c(N)n2)c1F [Compound 794] | 76 to 100 | 76 to 100 | 76 to 100 | 76 to 100 |  |  |
| Fc1ccc(COc2ncc(F)c(/N=C/N3CCOCC3)n2)cc1 [Compound 795] | 76 to 100 | 76 to 100 | 76 to 100 | 76 to 100 |  |  |
| COc1c(F)cc(F)cc1COc1ncc(F)c(N)n1 [Compound 796] | 76 to 100 | 76 to 100 | 76 to 100 | 76 to 100 |  |  |
| COc1ccccc1COc1ncc(F)c(NC(=S)NCc2ccccc2F)n1 [Compound 797] | 51 to 75 | 76 to 100 | 26 to 50 | 76 to 100 |  |  |
| CC(Oc1ncc(F)c(N)n1)c1cccc(I)c1 (stereo not shown) [Compound 798] | 76 to 100 | 76 to 100 | 76 to 100 | 76 to 100 |  |  |
| O=C(Nc1ccccc1F)Nc1nc(OCc2cccs2)ncc1F [Compound 799] | 0 to 25 | 0 to 25 | 0 to 25 | 0 to 25 |  |  |
| CC(C)(C)OCCOc1ncc(F)c(N)n1 [Compound 802] | 0 to 25 | 0 to 25 | 0 to 25 | 0 to 25 |  |  |
| Fc1ccccc1CNc1nc(OC2CCCCC2)ncc1F [Compound 803] |  |  |  |  | 0 to 25 | 51 to 75 |

| SMILES | pest or weed control at 25 ppm [1] [%] | pest or weed control at 100 ppm [2] [%] | pest or weed control at 25 ppm [3] [%] | pest or weed control at 100 ppm [4] [%] | pest or weed control at 50 ppm (24 h) [%] | pest or weed control at 200 ppm (24 h) [%] |
| --- | --- | --- | --- | --- | --- | --- |
| Fc1ccc(COc2ncc(F)c(NCCc3ccccc3)n2)cc1 [Compound 805] |  |  |  |  | 51 to 75 | 76 to 100 |
| Fc1cnc(OCc2cccc(C(F)(F)F)c2)nc1NCc1cccs1 [Compound 806] |  |  |  |  |  | 76 to 100 |
| Fc1cnc(OCc2ccccc2Cl)nc1NC1CC1 [Compound 807] |  |  |  |  |  | 76 to 100 |
| Fc1cnc(OCc2ccc(Cl)cc2)nc1NCc1cccs1 [Compound 808] |  |  |  |  | 76 to 100 | 76 to 100 |
| Fc1ccccc1CNc1nc(OCc2ccccc2F)ncc1F [Compound 809] |  |  |  |  | 51 to 75 | 76 to 100 |
| Fc1cnc(OCc2ccccc2Cl)nc1NCc1cccs1 [Compound 810] |  |  |  |  |  | 76 to 100 |
| Fc1cnc(OCc2ccc(C(F)(F)F)cc2)nc1NCc1ccc(Cl)cc1 [Compound 811] |  |  |  |  | 76 to 100 | 76 to 100 |
| COc1cccc(COc2ncc(F)c(NC3CC3)n2)c1 [Compound 812] |  |  |  |  |  | 76 to 100 |
| Fc1cnc(OCc2cccc(C(F)(F)F)c2)nc1NCc1ccc(Cl)cc1 [Compound 813] |  |  |  |  | 76 to 100 | 76 to 100 |
| Fc1cnc(OCc2cc(Cl)cc(Cl)c2)nc1NCc1cccs1 [Compound 814] |  |  |  |  |  | 76 to 100 |
| CC(=O)Nc1nc(OCc2cccc(Oc3ccccc3)c2)ncc1F [Compound 815] |  |  |  |  | 76 to 100 | 76 to 100 |
| Fc1cnc(OCc2ccc(Cl)cc2)nc1NCc1ccc(Cl)cc1 [Compound 816] |  |  |  |  | 76 to 100 | 76 to 100 |
| Fc1ccccc1CNc1nc(OCc2ccco2)ncc1F [Compound 817] |  |  |  |  | 26 to 50 | 76 to 100 |
| Cc1cnc(CNc2nc(OCC(F)(F)F)ncc2F)cn1 [Compound 818] |  |  |  |  | 0 to 25 | 0 to 25 |
| Fc1cnc(OCc2ccc(C(F)(F)F)cc2)nc1NC1CC1 [Compound 819] |  |  |  |  |  | 76 to 100 |
| Fc1cccc(COc2ncc(F)c(NCc3ccc(Cl)cc3)n2)c1 [Compound 820] |  |  |  |  | 26 to 50 | 76 to 100 |
| COc1ccccc1COc1ncc(F)c(NC2CC2)n1 [Compound 821] |  |  |  |  |  | 76 to 100 |
| Cc1cnc(CNc2nc(OCc3cccs3)ncc2F)cn1 [Compound 822] |  |  |  |  | 26 to 50 | 76 to 100 |
| COc1ccc(COc2ncc(F)c(NC3CC3)n2)cc1 [Compound 823] |  |  |  |  |  | 76 to 100 |
| Fc1cccc(COc2ncc(F)c(NCc3ccccc3F)n2)c1 [Compound 824] |  |  |  |  | 76 to 100 | 76 to 100 |

| SMILES | pest or weed control at 25 ppm [1] [%] | pest or weed control at 100 ppm [2] [%] | pest or weed control at 25 ppm [3] [%] | pest or weed control at 100 ppm [4] [%] | pest or weed control at 50 ppm (24 h) [%] | pest or weed control at 200 ppm (24 h) [%] |
| --- | --- | --- | --- | --- | --- | --- |
| Fc1ccc(COc2ncc(F)c(NCc3ccccc3F)n2)cc1F [Compound 825] |  |  |  |  | 51 to 75 | 76 to 100 |
| Fc1cnc(OCc2cccc(C(F)(F)F)c2)nc1NC1CC1 [Compound 826] |  |  |  |  |  | 76 to 100 |
| Fc1cnc(OCc2ccco2)nc1NCCc1ccccc1 [Compound 827] |  |  |  |  | 0 to 25 | 26 to 50 |
| Fc1cnc(OCCc2ccccc2)nc1N1CCOCC1 [Compound 828] |  |  |  |  | 0 to 25 | 0 to 25 |
| Fc1cnc(OCc2ccc(OC(F)(F)F)cc2)nc1NCc1ccc(Cl)cc1 [Compound 829] |  |  |  |  | 26 to 50 | 76 to 100 |
| Fc1cnc(OCC(F)(F)F)nc1NCc1cccs1 [Compound 830] |  |  |  |  | 0 to 25 | 0 to 25 |
| Fc1cnc(OCc2cccs2)nc1NCc1cccs1 [Compound 831] |  |  |  |  | 51 to 75 | 76 to 100 |
| O=c1nc(NCc2ccccc2F)c(F)c[nH]1 [Compound 832] |  |  |  |  | 0 to 25 | 0 to 25 |
| Fc1ccc(COc2ncc(F)c(NCC(F)(F)F)n2)cc1 [Compound 833] |  |  |  |  | 26 to 50 | 51 to 75 |
| Fc1ccc(COc2ncc(F)c(NC3CC3)n2)c(F)c1 [Compound 834] |  |  |  |  |  | 76 to 100 |
| Fc1cnc(OCc2c(Cl)cccc2Cl)nc1NCc1cccs1 [Compound 835] |  |  |  |  |  | 76 to 100 |
| Cc1ccc(COc2ncc(F)c(N3CCOCC3)n2)cc1 [Compound 836] |  |  |  |  | 51 to 75 | 76 to 100 |
| Fc1cnc(OC2CCCCC2)nc1NCCc1ccccc1 [Compound 837] |  |  |  |  | 0 to 25 | 0 to 25 |
| Fc1cnc(OCc2ccc(Cl)cc2Cl)nc1NCc1cccs1 [Compound 838] |  |  |  |  |  | 76 to 100 |
| Fc1cnc(OCc2ccc3c(c2)OCO3)nc1NCc1cccs1 [Compound 839] |  |  |  |  |  | 76 to 100 |
| Fc1ccc(COc2ncc(F)c(NCc3ccc(Cl)cc3)n2)cc1 [Compound 840] |  |  |  |  | 51 to 75 | 76 to 100 |
| Fc1cnc(OC2CCCCC2)nc1NCc1ccc2c(c1)OCO2 [Compound 841] |  |  |  |  | 51 to 75 | 76 to 100 |
| Fc1cnc(OCc2ccc(Cl)cc2)nc1NCc1ccc2c(c1)OCO2 [Compound 842] |  |  |  |  | 76 to 100 | 76 to 100 |
| Fc1cnc(OCCc2ccccc2)nc1NCc1cccs1 [Compound 843] |  |  |  |  | 26 to 50 | 76 to 100 |
| Cc1ccc(COc2ncc(F)c(NCc3ccc(Cl)nc3)n2)cc1 [Compound 844] |  |  |  |  | 76 to 100 | 76 to 100 |
